Source: US20110105430A1, “PYRROLO [2,3-C] PYRIDINE DERIVATIVES AS P38 KINEASE INHIBITING AGENTS” (priority 2008, published 2011)

Tests used:
p38α = target: T1, p38α (Homo sapiens, UniProt Q16539); assay: p38 kinase assay, p38-α with peptide substrate (Caliper LabChip); assay type: biochemical
T1 construct: purchased Millipore
Procedure: Alternatively, p38 kinase assays were performed in a reaction volume of 70 μL in a 384-well plate, at 30° for […] under the following conditions: 50 mM Hepes, pH 7.4, 10 mM MgCl2, 1 mg/ml FA Free BSA, 1 mM DTT, 10 μM ATP, 10 μM p38 peptide [Caliper Life Sciences FL-Peptide 8 (5-FAM-IPTSPITTTYFFFKKK-COOH)] and 5.7 nM p38-α (Millipore), or 14.3 nM unactivated MAPKAP kinase-2, 0.18 nM p38-α (Millipore) and 2 uM RSK peptide [Caliper Life Sciences FL-Peptide 11 (5-FAM-KKLNRTLSVA-COOH)]. Serial dilutions of compounds were added to each reaction in 700 nL DMSO. 700 nL of DMSO was added to the control wells of the reaction plate as the no inhibitor control for each inhibitor titration. The reaction was terminated by the addition of 15 μL of a 100 mM EDTA. Product formation was analyzed using the Caliper LabChip 3000. The Separation buffer contained 100 mM HEPES pH 7.5, 0.015% Brij-35, 2.5% Coating Reagent #3 (Caliper Life Sciences) and 10 mM EDTA. Calculation of the substrate product ratios are performed using the HTS Well Analyzer software provided by Caliper Life Sciences and the percent inhibition at each compound concentration is determined.

TNF-α = assay: IC50 hWB (TNF-α release assay); assay type: cell-based; settings: Homo sapiens
Procedure: Blood was obtained from healthy volunteers by venipuncture using sodium heparin as an anti-coagulant. Peripheral blood mononuclear cells (PBMCs) were isolated using Lymphocyte Separation Medium (ICN) according to manufacturers specifications. Isolated PBMCs were washed 3 times with FIBSS and diluted to a density of 2×10^6 cells/mL in RPMI+5% autologous human serum. 50 μL of the serial dilutions of inhibitor were added to wells of a 96-well tissue culture plate followed by addition of 100 μL of PBMCs and then 50 μL of RPMI complete medium containing 400 ng/mL LPS. A control well of cells without compound but with LPS (maximal stimulation control) and one without compound and without LPS (background control) were included in each titration. The cells were incubated for 16 hours in a humidified incubator at 37° C., 5% CO2. Supernatants were then harvested and TNF-α levels were quantified by immunoassay using commercial reagents (R&D, Inc).

T1 sequence (Q16539 whole entry): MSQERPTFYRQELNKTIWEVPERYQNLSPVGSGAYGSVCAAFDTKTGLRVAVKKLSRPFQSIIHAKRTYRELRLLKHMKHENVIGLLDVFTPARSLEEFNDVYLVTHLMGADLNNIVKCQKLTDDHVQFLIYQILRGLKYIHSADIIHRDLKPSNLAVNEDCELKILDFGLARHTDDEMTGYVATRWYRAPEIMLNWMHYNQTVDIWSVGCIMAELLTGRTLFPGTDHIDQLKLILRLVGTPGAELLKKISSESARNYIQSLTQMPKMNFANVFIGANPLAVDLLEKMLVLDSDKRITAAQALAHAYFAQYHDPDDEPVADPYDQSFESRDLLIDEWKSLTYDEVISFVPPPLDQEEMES

| IC50 (p38α) [nM] | IC50 (TNF-α) [nM] | SMILES |
| --- | --- | --- |
| 25 | 142 | Cc1cnc2nc(Cn3ccc4c(C(=O)c5c(F)cccc5F)c[nH]c4c3=O)[nH]c2c1 [Example 12, 3-(2,6-difluorobenzoyl)-6-[(6-methyl-3H-imidazo[4,5-b]pyridin-2-yl)methyl]-1,6-dihydro-7H-pyrrolo[2,3-c]pyridin-7-one] |
| 14 | 39 | Cc1cnc2nc(Cn3ccc4c(C(=O)c5c(F)cc(F)cc5F)c[nH]c4c3=O)[nH]c2c1 [Example 11, 6-[(6-methyl-3H-imidazo[4,5-b]pyridin-2-yl)methyl]-3-(2,4,6-trifluorobenzoyl)-1,6-dihydro-7 H-pyrrolo[2,3-c]pyridin-7-one] |
